One assay addresses PDGFR-β (Homo sapiens (Human), UniProt P09619). Nature of the assay: PDGFR-β tyrosine kinase inhibitory action (HTRF KinEASE-TK). Particulars: PDGFR-β enzyme 1 ng/μL, 30° C. for 30 minutes; read-out: PDGF-β IC50. The format is biochemical. On the procedure: (§1) 1. Preparation of Test Substance
This DMSO solution was diluted by 8 times with an assay buffer 1 (50 mM HEPES (pH 7.0), 0.02% NaN3, 0.01% Bovine Serum Albumin, 0.1 mM orthovanadate, 1 mM Dithiothreitol, 5 mM MgCl2, and 1 mM MnCl2) and further diluted by 5 times with an assay buffer 2 (50 mM HEPES (pH 7.0), 0.02% NaN3, 0.01% Bovine Serum Albumin, 0.1 mM orthovanadate, 1 mM Dithiothreitol, 5 mM MgCl2, 1 mM MnCl2, and 40 nM Supplemented Enzymatic Buffer (cisbio)).
2. Measurement of PDGFR-β Tyrosine Kinase Inhibitory Action
For the measurement, the HTRF KinEASE-TK kit from Cisbio Bioassays SAS was used. To a 384 well plate, the test substance solution was added at 4 μL each, then 2 μL of a PDGFR-β enzyme solution (final concentration of 1 ng/μL, Carna Biosciences, Inc.) and 4 μL of a substrate solution obtained by adding 0.6 μM ATP to TK substrate-3-biotin (cisbio) were added, and the solution was allowed to react at 30° C. for 30 minutes at a final concentration of the test substance being 0.01 to 10,000 nM.
Thereafter, 10 μL of a detection solution (cisbio) was added to each well and allowed to react at 30° C. for 1 hour. The fluorescence intensity was measured with a microplate reader (Spectra Max M5, Molecular device).
(§2) 3. Analysis of Measurement Results
Background: TR-FRET usually uses a lanthanide donor and a delayed reading to cut background.

Assay [1] concerns pulmonary arterial smooth muscle cells. Kind of assay: Suppression of proliferation of pulmonary arterial smooth muscle cells (PDGF-BB stimulation, BrdU). The format is cell-based. The following applies: healthy human derived pulmonary arterial smooth muscle cells, human PDGF-BB 10 ng/mL stimulation, BrdU uptake after 1 day, test substance final concentration 3 to 10,000 nM, read-out: Human normal PASMC proliferation suppression (PDGF stimulation_IC50). As to the method: as §1
Furthermore, it was diluted by 50 times with distilled water.
2. Measurement of Suppression Action Against Proliferation of Pulmonary Arterial Smooth Muscle Cells
The day after healthy human derived pulmonary arterial smooth muscle cells were seeded onto a 96 well plate using a smooth muscle cell proliferation medium, the proliferation medium was replaced with a 0.1% FBS medium, and the cells were cultured for an additional day. A test substance solution was diluted by 10 times with a medium containing BrdU and human PDGF-BB (final concentration of 10 ng/mL, Sigma-Aldrich) and added to cells in equal amounts so as to reach a final concentration of 3 to 10,000 nM. Also, to the human PDGF-BB negative control, BrdU and 0.1% DMSO solution were added. After culturing for 1 day, the amount of BrdU taken up by the proliferating cells was measured using an anti-BrdU antibody.
as §2

Like-named read-outs stand apart in the source and are kept apart here.

PDGFR-β, sequence (P09619 33-1106): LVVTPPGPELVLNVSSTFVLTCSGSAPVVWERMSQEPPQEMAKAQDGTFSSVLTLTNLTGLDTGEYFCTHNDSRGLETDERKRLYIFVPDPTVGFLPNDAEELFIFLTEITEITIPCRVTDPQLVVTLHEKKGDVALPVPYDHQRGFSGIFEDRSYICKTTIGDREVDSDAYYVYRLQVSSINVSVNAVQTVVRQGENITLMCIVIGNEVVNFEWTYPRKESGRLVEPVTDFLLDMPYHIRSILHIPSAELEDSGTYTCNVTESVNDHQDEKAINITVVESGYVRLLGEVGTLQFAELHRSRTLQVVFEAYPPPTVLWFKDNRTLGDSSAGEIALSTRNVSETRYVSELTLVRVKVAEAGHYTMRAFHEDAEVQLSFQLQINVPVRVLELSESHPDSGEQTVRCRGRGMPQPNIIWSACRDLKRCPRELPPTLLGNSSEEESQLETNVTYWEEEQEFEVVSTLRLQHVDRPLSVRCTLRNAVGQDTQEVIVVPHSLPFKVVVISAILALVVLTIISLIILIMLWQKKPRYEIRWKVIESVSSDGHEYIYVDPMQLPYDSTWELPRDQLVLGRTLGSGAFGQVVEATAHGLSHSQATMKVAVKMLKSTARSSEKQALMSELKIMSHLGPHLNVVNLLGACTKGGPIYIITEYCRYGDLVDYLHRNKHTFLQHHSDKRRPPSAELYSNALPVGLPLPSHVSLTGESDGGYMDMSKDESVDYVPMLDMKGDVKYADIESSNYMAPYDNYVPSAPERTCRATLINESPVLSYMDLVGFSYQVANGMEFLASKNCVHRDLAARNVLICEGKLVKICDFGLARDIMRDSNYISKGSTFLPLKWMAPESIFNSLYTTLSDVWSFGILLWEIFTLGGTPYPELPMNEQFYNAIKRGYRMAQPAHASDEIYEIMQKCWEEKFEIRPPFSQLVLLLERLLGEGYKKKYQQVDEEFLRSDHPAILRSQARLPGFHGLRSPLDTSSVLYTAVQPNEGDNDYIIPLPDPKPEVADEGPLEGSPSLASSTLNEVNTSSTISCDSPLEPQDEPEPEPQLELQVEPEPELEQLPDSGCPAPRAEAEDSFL

For `Cc1ccc(C(=O)N[C@H]2CCCC[C@@H]2O)cc1NCc1cnc(-c2ccccc2)nc1` [Example 121, N-[(1S,2S)-2-hydroxycyclohexyl]-4-methyl-3-{[(2-phenylpyrimidin-5-yl)methyl]amino}benzamide], the IC50 on PDGFR-β stood at 160 nM; in assay [1] (PASMC, 24 h) it was 300 nM.

Regarding `Cc1ccc(C(=O)N[C@H]2CCCC[C@@H]2O)cc1NCc1ccc(-n2cccn2)nc1` [Example 122, N-[(1S,2S)-2-hydroxycyclohexyl]-4-methyl-3-({[6-(1H-pyrazol-1-yl)pyridin-3-yl]methyl}amino)benzamide], the IC50 stood at 150 nM on PDGFR-β and 300 nM in assay [1] (PASMC, 24 h).

As for `Cc1ncc(C(=O)N[C@H]2CCCC[C@@H]2O)cc1NCc1cnn2ccccc12` [Example 123, N-[(1S,2S)-2-hydroxycyclohexyl]-6-methyl-5-{[(pyrazolo[1,5-a]pyridin-3-yl)methyl]amino}pyridine-3-carboxamide], the IC50 on PDGFR-β came to 210 nM; in assay [1] (PASMC, 24 h), 290 nM.

As for `COC(=O)Nc1ccc(CNc2cc(C(=O)N[C@H]3CCCC[C@@H]3O)ccc2C)cn1` [Example 124, methyl {5-[(5-{[(1S,2S)-2-hydroxycyclohexyl]carbamoyl}-2-methylanilino)methyl]pyridin-2-yl}carbamate], the IC50 worked out at 22 nM at PDGFR-β and 25 nM in assay [1] (PASMC, 24 h).

For the molecule `Cc1ccc(C(=O)N[C@H]2CCCC[C@@H]2O)cc1NCc1ccc(NC2CCOCC2)nc1` [Example 125, N-[(1S,2S)-2-hydroxycyclohexyl]-4-methyl-3-[({6-[(oxan-4-yl)amino]pyridin-3-yl}methyl)amino]benzamide], the IC50 was determined as 130 nM at PDGFR-β and 30 nM in assay [1] (PASMC, 24 h).

Regarding `Cc1ccc(C(=O)N[C@H]2CCCC[C@@H]2O)cc1NCc1cnc(Nc2ccccn2)nc1` [Example 126, N-[(1S,2S)-2-hydroxycyclohexyl]-4-methyl-3-[({2-[(pyridin-2-yl)amino]pyrimidin-5-yl}methyl)amino]benzamide], the IC50 at PDGFR-β was found to be 45 nM; in assay [1] (PASMC, 24 h), 64 nM.

With `Cc1ccc(C(=O)N[C@H]2CCCC[C@@H]2O)cc1NCc1ccc(NC(=O)N2CCOCC2)nc1` [Example 127, N-{5-[(5-{[(1S,2S)-2-hydroxycyclohexyl]carbamoyl}-2-methylanilino)methyl]pyridin-2-yl}morpholine-4-carboxamide], the IC50 came out at 63 nM at PDGFR-β and 45 nM in assay [1] (PASMC, 24 h).

For `COc1ccc(-c2ncc(CNc3cc(C(=O)N[C@H]4CCCC[C@@H]4O)ccc3C)cn2)cc1` [Example 128, N-[(1S,2S)-2-hydroxycyclohexyl]-3-({[2-(4-methoxyphenyl)pyrimidin-5-yl]methyl}amino)-4-methylbenzamide], the IC50 at PDGFR-β was determined as 180 nM; in assay [1] (PASMC, 24 h), 79 nM.

Take `Cc1ccc(C(=O)N[C@H]2CCCC[C@@H]2O)cc1NCc1ccc(NC(=O)Nc2cccnc2)nc1` [Example 129, N-[(1S,2S)-2-hydroxycyclohexyl]-4-methyl-3-{[(6-{[(pyridin-3-yl)carbamoyl]amino}pyridin-3-yl)methyl]amino}benzamide]: the IC50 at PDGFR-β was 17 nM; in assay [1] (PASMC, 24 h), 20 nM.

For the molecule `Cc1ccc(C(=O)N[C@H]2CCCC[C@@H]2O)cc1NCc1ccc(NC2CCC2)nc1` [Example 130, 3-({[6-(cyclobutylamino)pyridin-3-yl]methyl}amino)-N-[(1S,2S)-2-hydroxycyclohexyl]-4-methylbenzamide], the IC50 came to 80 nM on PDGFR-β and 53 nM in assay [1] (PASMC, 24 h).

In the case of `Cc1ccc(C(=O)N[C@H]2CCCC[C@@H]2O)cc1NCc1cnc(N)cn1` [Example 131, 3-{[(5-aminopyrazin-2-yl)methyl]amino}-N-[(1S,2S)-2-hydroxycyclohexyl]-4-methylbenzamide], the IC50 at PDGFR-β amounted to 490 nM; in assay [1] (PASMC, 24 h), 340 nM.

In the case of `Cc1ccc(C(=O)N[C@H]2CCCC[C@@H]2O)cc1NCc1cnc(NC2CCOCC2)nc1` [Example 132, N-[(1S,2S)-2-hydroxycyclohexyl]-4-methyl-3-[({2-[(oxan-4-yl)amino]pyrimidin-5-yl}methyl)amino]benzamide], the IC50 worked out at 72 nM at PDGFR-β and 73 nM in assay [1] (PASMC, 24 h).

Turning to `Cc1ccc(C(=O)N[C@H]2CCCC[C@@H]2O)cc1NCc1ccc(NC(=O)N(C)C2CC2)nc1` [Example 133, 3-{[(6-{[cyclopropyl(methyl)carbamoyl]amino}pyridin-3-yl)methyl]amino}-N-[(1S,2S)-2-hydroxycyclohexyl]-4-methylbenzamide], the IC50 at PDGFR-β amounted to 170 nM; in assay [1] (PASMC, 24 h), 110 nM.

`Cc1ccc(C(=O)N[C@H]2CCCC[C@@H]2O)cc1NCc1ccc(NC(C)C)nc1` [Example 134, N-[(1S,2S)-2-hydroxycyclohexyl]-4-methyl-3-[({6-[(propan-2-yl)amino]pyridin-3-yl}methyl)amino]benzamide]: the IC50 at PDGFR-β came out at 170 nM; in assay [1] (PASMC, 24 h), 60 nM.

For the molecule `Cc1ccc(C(=O)N[C@H]2CCCC[C@@H]2O)cc1NCc1cnc(N[C@@H]2CCOC2)nc1` [Example 135, N-[(1S,2S)-2-hydroxycyclohexyl]-4-methyl-3-{[(2-{[(3R)-oxolan-3-yl]amino}pyrimidin-5-yl)methyl]amino}benzamide], the IC50 on PDGFR-β amounted to 120 nM; in assay [1] (PASMC, 24 h), 390 nM.

In the case of `Cc1ccc(C(=O)N[C@H]2CCCC[C@@H]2O)cc1NCc1cnc(N[C@H]2CCOC2)nc1` [Example 136, N-[(1S,2S)-2-hydroxycyclohexyl]-4-methyl-3-{[(2-{[(3S)-oxolan-3-yl]amino}pyrimidin-5-yl)methyl]amino}benzamide], the IC50 on PDGFR-β was found to be 32 nM; in assay [1] (PASMC, 24 h), 150 nM.

For `Cc1ccc(C(=O)N[C@H]2CCCC[C@@H]2O)cc1NCc1ccc(NC(=O)C2CCOCC2)nc1` [Example 137, N-{5-[(5-{[(1S,2S)-2-hydroxycyclohexyl]carbamoyl}-2-methylanilino)methyl]pyridin-2-yl}oxane-4-carboxamide], the IC50 at PDGFR-β worked out at 41 nM; in assay [1] (PASMC, 24 h) it was 60 nM.

For the molecule `COC1CC(C(=O)Nc2ccc(CNc3cc(C(=O)N[C@H]4CCCC[C@@H]4O)ccc3C)cn2)C1` (stereo partly drawn) [Example 138, N-[(1S,2S)-2-hydroxycyclohexyl]-3-{[(6-{[(1r,3r)-3-methoxycyclobutane-1-carbonyl]amino}pyridin-3-yl)methyl]amino}-4-methylbenzamide], the IC50 at PDGFR-β was 16 nM; in assay [1] it was 51 nM.

In the case of `Cc1ccc(C(=O)N[C@H]2CCCC[C@@H]2O)cc1NCc1ccc(NC(=O)C2CCOC2)nc1` (stereo partly drawn) [Example 139, N-{5-[(5-{[(1S,2S)-2-hydroxycyclohexyl]carbamoyl}-2-methylanilino)methyl]pyridin-2-yl}oxolane-3-carboxamide], the IC50 turned out to be 30 nM at PDGFR-β and 100 nM in assay [1] (PASMC, 24 h).

For the molecule `Cc1ccc(C(=O)N[C@H]2CCCC[C@@H]2O)cc1NCc1ccc(-n2ccnn2)nc1` [Example 140, N-[(1S,2S)-2-hydroxycyclohexyl]-4-methyl-3-({[6-(1H-1,2,3-triazol-1-yl)pyridin-3-yl]methyl}amino)benzamide], the IC50 on PDGFR-β was determined as 330 nM; in assay [1] (PASMC, 24 h), 43 nM.

With `Cc1ccc(C(=O)N[C@H]2CCCC[C@@H]2O)cc1NCc1ccc(NC2COC2)nc1` [Example 141, N-[(1S,2S)-2-hydroxycyclohexyl]-4-methyl-3-[({6-[(oxetan-3-yl)amino]pyridin-3-yl}methyl)amino]benzamide], the IC50 is 69 nM on PDGFR-β and 190 nM in assay [1] (PASMC, 24 h).

As to `Nc1ncc(CNc2cc(C(=O)N[C@H]3CCCC[C@@H]3O)ccc2Cl)cn1` [Example 142, 3-{[(2-aminopyrimidin-5-yl)methyl]amino}-4-chloro-N-[(1S,2S)-2-hydroxycyclohexyl]benzamide], the IC50 on PDGFR-β was found to be 210 nM; in assay [1] (PASMC, 24 h), 130 nM.

As for `Cc1c(F)cc(C(=O)N[C@H]2CCCC[C@@H]2O)cc1NCc1cnc(N)nc1` [Example 143, 3-{[(2-aminopyrimidin-5-yl)methyl]amino}-5-fluoro-N-[(1S,2S)-2-hydroxycyclohexyl]-4-methylbenzamide], the IC50 came out at 97 nM at PDGFR-β and 90 nM in assay [1] (PASMC, 24 h).

`Cc1ccc(C(=O)N[C@H]2CCCC[C@@H]2O)cc1NCc1cnc2c(c1)OCCN2` [Example 144, 3-{[(3,4-dihydro-2H-pyrido[3,2-b][1,4]oxazin-7-yl)methyl]amino}-N-[(1S,2S)-2-hydroxycyclohexyl]-4-methylbenzamide]: the IC50 at PDGFR-β was 65 nM; in assay [1] (PASMC, 24 h), 39 nM.

The values above are taken from patent US12509424B2, “Compound and composition as PDGF receptor kinase inhibitor” (NIPPON SHINYAKU CO., LTD., priority 2019, dated 2025).
